Data on seven compounds can be found in US7897773B2, “Urea derivatives of tropane, their preparation and their therapeutic application” (Sanofi-Aventis, priority 2006, dated 2011).

Molecules are shown by their SMILES. Several values for one entry are separate records, joined by “and”; a condition that tells them apart may be missing. Equal values may be shown once. Where a name gives a salt, the structure may show the parent alone. Read-outs that look alike come from different tables or passages of the source.

One series addresses T1, 11beta-HSD1 enzyme (Homo sapiens, UniProt P28845).
T1 construct: made in house; host or cells: Saccharomyces cerevisiae
The series can be described thus: SPA (Scintillation Proximity Assay) of 11beta-HSD1 inhibition, 384 well format. Format: biochemical. As for the experimental part: The compounds according to the invention were the subject of pharmacological tests for determining their inhibitory activity on the 11beta-HSD1 enzyme which is an enzyme involved in lipid metabolism or glucose metabolism.
These tests consisted in measuring the in vitro inhibitory activity of the compounds of the invention by virtue of an SPA (Scintillation Proximity Assay) in 384 well format. The recombinant 11beta-HSD1 protein was produced in the yeast S. cerevisiae. The reaction was carried out by incubating the enzyme in the presence of ^3H-cortisone and NADPH, in the absence or in the presence of an increasing concentration of inhibitor. SPA beads coupled to an anti-mouse antibody, pre-incubated with an anti-cortisol antibody, made it possible to measure the amount of cortisol formed during the course of the reaction.
The inhibitory activity with respect to the 11beta-HSD1 enzyme is given by the concentration which inhibits 50% of the activity of 11beta-HSD1 (IC50).

A further series deals with T2, 11βHSD1 in the eyes (Homo sapiens, UniProt P28845).
T2 construct: The functional activity of 11βHSD1 in the eyes has been evaluated by studying the action of carbenoxolone in normal volunteers; host or cells: ocular tissue of human volunteers (in vivo)
As to conditions: normal volunteers; after seven days of treatment; cited from earlier work.

Where [1] appears, read: recombinant 11beta-HSD1 produced in yeast S. cerevisiae, 3H-cortisone and NADPH, read-out: concentration which inhibits 50% of the activity of 11beta-HSD1 (IC50).

T1 sequence (P28845 whole entry, species assumed): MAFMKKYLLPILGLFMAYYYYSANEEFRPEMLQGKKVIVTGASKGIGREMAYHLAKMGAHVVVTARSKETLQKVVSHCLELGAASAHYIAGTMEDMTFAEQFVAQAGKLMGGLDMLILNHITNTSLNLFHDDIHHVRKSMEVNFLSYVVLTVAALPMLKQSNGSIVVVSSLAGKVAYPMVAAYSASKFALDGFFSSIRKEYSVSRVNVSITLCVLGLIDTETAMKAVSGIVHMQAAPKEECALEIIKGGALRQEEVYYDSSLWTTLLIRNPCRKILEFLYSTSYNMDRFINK
T2 sequence (P28845 whole entry): as the sequence (P28845 whole entry, species assumed) above

As to `O=C(N1CCCc2ccccc21)N1C2CCC1CC(c1ccccc1)C2` (centres unmarked) [Compound 7, (3,4-dihydro-2H-quinolin-1-yl)-(3-phenyl-8-azabicyclo-[3.2.1]oct-8-yl)methanone], the melting point was 133 to 134 °C. In addition, the IC50 on 11beta-HSD1 enzyme (setting [1]) was determined as 4 nM. Turning to `O=C(N1CCCc2ccccc21)N1C2CCC1CC(c1cccnc1)C2` (centres unmarked) (as salt: HCl) [Compound 4, 1-[(3-pyridin-3-yl-8-azabicyclo[3.2.1]oct-8-yl)carbonyl]-1,2,3,4-tetrahydroquinoline Hydrochloride], the melting point was 218 to 220 °C and 218 to 222 °C. On 11beta-HSD1 enzyme, `O=C(N1CCCc2ccccc21)N1C2CCC1CC(c1cccnc1)C2` (centres unmarked) [Compound 4, 1-[(3-pyridin-3-yl-8-azabicyclo[3.2.1]oct-8-yl)carbonyl]-1,2,3,4-tetrahydroquinoline Hydrochloride] returned an IC50 of 19 nM. Take `O=C(N1CCCc2ccccc21)N1C2C=C(c3cccc4[nH]ccc34)CC1CC2` (centres unmarked) [Compound 28, (3,4-dihydro-2H-quinolin-1-yl)-[3-(1H-indol-4-yl)-8-azabicyclo[3.2.1]oct-2-en-8-yl]methanone]: the IC50 at 11beta-HSD1 enzyme (setting [1]) turned out to be 190 nM. Take `O=C(N1CCCc2ccccc21)N1C2CCC1CC(c1ccc(F)nc1)C2` (centres unmarked) (as salt: HCl): the melting point is 98 to 99 °C. In turn, `O=C(N1CCCc2ccccc21)N1C2C=C(c3cccnc3F)CC1CC2` (centres unmarked) [Compound 13, (3,4-dihydro-2H-quinolin-1-yl)-[3-(2-fluoropyridin-3-yl)-8-azabicyclo[3.2.1]oct-2-en-8-yl]methanone] showed an IC50 at 11beta-HSD1 enzyme of 122 nM. `CC1(C)[C@@H](OC(=O)CCC(=O)O)CC[C@]2(C)[C@H]3C(=O)C=C4[C@@H]5C[C@@](C)(C(=O)O)CC[C@]5(C)CC[C@@]4(C)[C@]3(C)CC[C@@H]12` [carbenoxolone]: the “IOP is reduced by” value at 11βHSD1 in the eyes is 18%.

Usually melting point stands for the temperature, or range, at which the solid turns liquid.
